Experimental data: patent US12281126B2, “Inhibitors of cyclin-dependent kinase 7 and uses thereof” (Dana-Farber Cancer Institute, Inc., priority 2018, dated 2025)

How the values were obtained:
Format in all cases: biochemical
[1] = molecular target: CDK2 (Homo sapiens (Human), UniProt P24941); assay: Invitrogen kinase assay, inhibition of CDK2; settings: co-factor cyclin A; read-out: IC50 against CDK2
Procedure: (§1) Compounds of the disclosure were assayed using Invitrogen CDK7 assay against a variety of kinases. Exemplary results are presented as IC50 values (see Table 1 and Table 2). The co-factors used for each kinase in the assays were as follows: CDK7: cyclin H and MNAT1; CDK2: cyclin A; CDK9: cyclin T1.

[2] = molecular target: CDK7 (Homo sapiens (Human), UniProt P50613); assay: Invitrogen CDK7 assay, inhibition of CDK7; settings: co-factors cyclin H and MNAT1; read-out: IC50 against CDK7
Procedure: as §1

[3] = molecular target: CDK9 (Homo sapiens (Human), UniProt P50750); assay: Invitrogen kinase assay, inhibition of CDK9; settings: co-factor cyclin T1; read-out: IC50 against CDK9
Procedure: as §1

CDK9, sequence (P50750 whole entry): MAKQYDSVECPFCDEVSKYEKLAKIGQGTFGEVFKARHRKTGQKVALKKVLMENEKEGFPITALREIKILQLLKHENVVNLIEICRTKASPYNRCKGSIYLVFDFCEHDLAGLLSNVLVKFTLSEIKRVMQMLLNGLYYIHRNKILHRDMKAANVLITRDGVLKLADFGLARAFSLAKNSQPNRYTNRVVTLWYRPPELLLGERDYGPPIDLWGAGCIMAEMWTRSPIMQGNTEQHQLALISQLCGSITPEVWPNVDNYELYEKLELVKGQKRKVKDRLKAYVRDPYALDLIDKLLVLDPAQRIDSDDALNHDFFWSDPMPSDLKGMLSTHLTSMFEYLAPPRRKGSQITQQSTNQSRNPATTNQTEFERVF
CDK9, sequence (O60563 whole entry partner): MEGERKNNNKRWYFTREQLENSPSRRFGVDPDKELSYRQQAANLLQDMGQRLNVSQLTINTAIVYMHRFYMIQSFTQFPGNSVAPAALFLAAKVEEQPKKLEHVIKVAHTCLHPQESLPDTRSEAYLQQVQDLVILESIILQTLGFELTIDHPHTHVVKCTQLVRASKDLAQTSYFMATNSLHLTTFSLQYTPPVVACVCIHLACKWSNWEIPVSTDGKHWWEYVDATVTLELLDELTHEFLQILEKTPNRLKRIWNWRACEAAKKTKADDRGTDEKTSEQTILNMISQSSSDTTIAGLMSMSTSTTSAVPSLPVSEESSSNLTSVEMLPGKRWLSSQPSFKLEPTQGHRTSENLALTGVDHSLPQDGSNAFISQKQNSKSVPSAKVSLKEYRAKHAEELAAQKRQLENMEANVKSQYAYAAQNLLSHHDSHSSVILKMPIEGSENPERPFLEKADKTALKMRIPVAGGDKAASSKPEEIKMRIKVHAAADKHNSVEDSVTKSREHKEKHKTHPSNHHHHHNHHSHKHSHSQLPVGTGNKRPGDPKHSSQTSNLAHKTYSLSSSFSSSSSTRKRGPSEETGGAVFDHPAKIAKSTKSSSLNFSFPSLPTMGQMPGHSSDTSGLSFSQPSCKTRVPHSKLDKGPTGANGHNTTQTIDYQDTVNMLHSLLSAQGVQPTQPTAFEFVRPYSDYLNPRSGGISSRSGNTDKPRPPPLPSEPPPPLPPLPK
CDK7, sequence (P50613 whole entry): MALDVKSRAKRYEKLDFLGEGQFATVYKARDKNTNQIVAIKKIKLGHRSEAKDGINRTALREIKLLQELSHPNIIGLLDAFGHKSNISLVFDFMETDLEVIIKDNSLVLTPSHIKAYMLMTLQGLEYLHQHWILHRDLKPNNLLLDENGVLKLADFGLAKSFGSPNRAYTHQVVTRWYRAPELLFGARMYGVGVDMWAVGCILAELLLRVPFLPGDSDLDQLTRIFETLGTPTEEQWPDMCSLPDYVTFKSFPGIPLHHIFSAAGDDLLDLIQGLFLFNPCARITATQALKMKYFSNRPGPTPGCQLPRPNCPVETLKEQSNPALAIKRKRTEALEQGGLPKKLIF
CDK7, sequence (P51946 whole entry partner): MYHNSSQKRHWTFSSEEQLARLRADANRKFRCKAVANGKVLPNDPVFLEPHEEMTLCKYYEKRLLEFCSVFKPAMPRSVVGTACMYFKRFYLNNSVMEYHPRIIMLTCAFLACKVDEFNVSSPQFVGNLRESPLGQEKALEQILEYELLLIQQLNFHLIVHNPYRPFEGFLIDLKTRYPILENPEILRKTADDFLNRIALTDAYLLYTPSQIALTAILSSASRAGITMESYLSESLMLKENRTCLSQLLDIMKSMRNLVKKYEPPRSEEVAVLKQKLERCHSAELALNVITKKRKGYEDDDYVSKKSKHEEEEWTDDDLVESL
CDK7, sequence (P51948 whole entry partner): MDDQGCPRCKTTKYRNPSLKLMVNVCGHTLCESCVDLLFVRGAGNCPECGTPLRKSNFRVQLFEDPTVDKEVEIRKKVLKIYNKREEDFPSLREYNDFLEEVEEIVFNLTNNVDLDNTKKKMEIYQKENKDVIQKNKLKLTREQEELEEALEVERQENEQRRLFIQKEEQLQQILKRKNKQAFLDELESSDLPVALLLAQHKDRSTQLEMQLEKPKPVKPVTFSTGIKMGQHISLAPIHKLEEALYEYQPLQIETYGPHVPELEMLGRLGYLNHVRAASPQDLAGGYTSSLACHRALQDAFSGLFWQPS

Structure (SMILES) | IC50 [1] [µM] | IC50 [2] [nM] | IC50 [3] [µM]
Cc1nc(Nc2n[nH]c3c2CN(C(=O)N[C@H](CN(C)C)C2CCOCC2)C3(C)C)c2ccsc2n1 [Compound 200, (S)—N-(2-(dimethylamino)-1-(tetrahydro-2H-pyran-4-yl)ethyl)-6,6-dimethyl-3-((2-methylthieno[2,3-d]pyrimidin-4-yl)amino)-4,6-dihydropyrrolo[3,4-c]pyrazole-5(1H)-carboxamide] | > 10 | 18.5 | > 10
Cc1nc(Nc2n[nH]c3c2CN(C(=O)N[C@H](CN(C)C)C2CCOCC2)C3(C)C)c2sccc2n1 [Compound 201, (S)—N-(2-(dimethylamino)-1-(tetrahydro-2H-pyran-4-yl)ethyl)-6,6-dimethyl-3-((2-methylthieno[3,2-d]pyrimidin-4-yl)amino)-4,6-dihydropyrrolo[3,4-c]pyrazole-5(1H)-carboxamide] | > 10 | 39.1 | > 10
C=CC(=O)Nc1cccc2c(Nc3n[nH]c4c3CN(C(=O)N[C@H](CN(C)C)C3CCOCC3)C4(C)C)nccc12 [Compound 203, (S)-3-((5-acrylamidoisoquinolin-1-yl)amino)-N-(2-(dimethylamino)-1-(tetrahydro-2H-pyran-4-yl)ethyl)-6,6-dimethyl-4,6-dihydropyrrolo[3,4-c]pyrazole-5(1H)-carboxamide] | > 10 | 214 | > 10
C=CC(=O)Nc1cnc(Nc2n[nH]c3c2CN(C(=O)N[C@H](CN(C)C)C2CCOCC2)C3(C)C)nc1 [Compound 206, (S)-3-((5-acrylamidopyrimidin-2-yl)amino)-N-(2-(dimethylamino)-1-(tetrahydro-2H-pyran-4-yl)ethyl)-6,6-dimethyl-4,6-dihydropyrrolo[3,4-c]pyrazole-5(1H)-carboxamide] | > 10 | 732 | > 10
CN(C)C[C@@H](NC(=O)N1Cc2c(Nc3ccnc(C(F)(F)F)n3)n[nH]c2C1(C)C)C1CCOCC1 [Compound 208, (S)—N-(2-(dimethylamino)-1-(tetrahydro-2H-pyran-4-yl)ethyl)-6,6-dimethyl-3-((2-(trifluoromethyl)pyrimidin-4-yl)amino)-4,6-dihydropyrrolo[3,4-c]pyrazole-5(1H)-carboxamide] | 4.52 | 10.8 | > 10

Results, then the compound that gave them:

IC50 [1] [µM] | IC50 [2] [nM] | IC50 [3] [µM] | Structure (SMILES)
> 10 | 61.1 | > 10 | C=CC(=O)Nc1ccc(C(=O)Nc2n[nH]c3c2CN(C(=O)NC2(CN(C)C)CC2)C3(C)C)cc1 [Compound 065, 3-(4-acrylamidobenzamido)-N-(1-((dimethylamino)methyl)cyclopropyl)-6,6-dimethyl-4,6-dihydropyrrolo[3,4-c]pyrazole-5(1H)carboxamide]
> 10 | 190 | 1.06 | C=CC(=O)Nc1ccc(C(=O)Nc2n[nH]c3c2CN(C(=O)NC(CN(C)C)C2CCOC2)C3(C)C)cc1 (stereo not drawn) [Compound 079, 3-(4-acrylamidobenzamido)-N-(2-(dimethylamino)-1-(tetrahydrofuran-3-yl)ethyl)-6,6-dimethyl-4,6-dihydropyrrolo[3,4-c]pyrazole-5(1H)-carboxamide]
> 1.11 | 69 | > 10 | C=CC(=O)Nc1ccc2c(Nc3n[nH]c4c3CN(C(=O)N[C@H](CN(C)C)C3CCOCC3)C4(C)C)nccc2c1 [Compound 202, (S)-3-((6-acrylamidoisoquinolin-1-yl)amino)-N-(2-(dimethylamino)-1-(tetrahydro-2H-pyran-4-yl)ethyl)-6,6-dimethyl-4,6-dihydropyrrolo[3,4-c]pyrazole-5(1H)-carboxamide]
> 10 | 407 | > 10 | C=CC(=O)Nc1ccc(Nc2n[nH]c3c2CN(C(=O)N[C@H](CN(C)C)C2CCOCC2)C3(C)C)nc1 [Compound 204, (S)-3-((5-acrylamidopyridin-2-yl)amino)-N-(2-(dimethylamino)-1-(tetrahydro-2H-pyran-4-yl)ethyl)-6,6-dimethyl-4,6-dihydropyrrolo[3,4-c]pyrazole-5(1H)-carboxamide]
> 0.37 | 12.8 | 4.01 | C=CC(=O)Nc1ccc(C(=O)Nc2n[nH]c3c2CN(C(=O)N[C@H](CN(C)C)C2CCOCC2)C3(C)C)cc1 [Compound 205, (S)-3-(4-acrylamidobenzamido)-N-(2-(dimethylamino)-1-(tetrahydro-2H-pyran-4-yl)ethyl)-6,6-dimethyl-4,6-dihydropyrrolo[3,4-c]pyrazole-5(1H)-carboxamide]
3.41 | 15.4 | > 10 | C=CC(=O)Nc1ccc(C(=O)Nc2n[nH]c3c2CN(C(=O)NC2CN(C)Cc4ccccc42)C3(C)C)cc1 (stereo not drawn) [Compound 207, 3-(4-acrylamidobenzamido)-6,6-dimethyl-N-(2-methyl-1,2,3,4-tetrahydroisoquinolin-4-yl)-4,6-dihydropyrrolo[3,4-c]pyrazole-5(1H)-carboxamide]
> 10 | 3310 | > 10 | C=CC(=O)Nc1ccc(Nc2n[nH]c3c2CN(C(=O)N[C@H](CN(C)C)C2CCOCC2)C3(C)C)cc1 [Compound 209, (S)-3-((4-acrylamidophenyl)amino)-N-(2-(dimethylamino)-1-(tetrahydro-2H-pyran-4-yl)ethyl)-6,6-dimethyl-4,6-dihydropyrrolo[3,4-c]pyrazole-5(1H)-carboxamide]
0.161 | 48.4 | 1.74 | C=CC(=O)Nc1ccc(C(=O)Nc2n[nH]c3c2CN(C(=O)N[C@H]2CCCN(C)C2)C3(C)C)cc1 [Compound 210, (S)-3-(4-acrylamidobenzamido)-6,6-dimethyl-N-(1-methylpiperidin-3-yl)-4,6-dihydropyrrolo[3,4-c]pyrazole-5(1H)-carboxamide]
